Test results taken from patent US4645769A, “1-oxa-1-dethia-cephalosporin compounds and antibacterial agent comprising the same” (Merck & Co., Inc., priority 1985, dated 1987).
≈ marks a conversion by molar mass, not a printed value. Counter-ions that a name gives are not always drawn.

Columns and labels:
[1] = system: Staphylococcus aureus 209 P JC-1; assay: Minimum Inhibitory Concentration (MIC), antibacterial spectrum in vitro; format: cell-based; conditions: Staphylococcus aureus 209 P JC-1; for MIC: 209PJC1, read-out: Minimum Inhibitory Concentration (MIC)
[2] = system: Streptococcus faecalis ATCC 8043; assay: as above; format: cell-based; conditions: Streptococcus faecalis ATCC 8043; for MIC: Enterococcus faecalis, ATCC8043, read-out: Minimum Inhibitory Concentration (MIC)
[3] = system: Esherichia coli NIHJ JC-2; assay: as above; format: cell-based
[4] = system: Klebsiella pneumoniae PCI 602; assay: as above; format: cell-based; conditions: Klebsiella pneumoniae PCI 602; for MIC: PCI602, read-out: Minimum Inhibitory Concentration (MIC)
[5] = system: Salmonella typhimurium LT-2; assay: as above; format: cell-based; conditions: Salmonella typhimurium LT-2; for MIC: Salmonella enterica, read-out: Minimum Inhibitory Concentration (MIC)
Proteus morganii 1510 = assay: as above; format: cell-based; conditions: Proteus morganii 1510; for MIC: Morganella morganii, read-out: Minimum Inhibitory Concentration (MIC)
[6] = system: Citrobacter freundii GN-346; assay: as above; format: cell-based; conditions: Citrobacter freundii GN-346; for MIC: GN346, read-out: Minimum Inhibitory Concentration (MIC)
[7] = system: Pseudomonas aeruginosa MB-3833; assay: as above; format: cell-based; conditions: Pseudomonas aeruginosa MB-3833; for MIC: MB3833, read-out: Minimum Inhibitory Concentration (MIC)
[8] = system: Pseudomonas aeruginosa E-2; assay: as above; format: cell-based; conditions: Pseudomonas aeruginosa E-2; for MIC: E2, read-out: Minimum Inhibitory Concentration (MIC)
[9] = Concentration in Blood Serum after subcutaneous dosing (bioassay using Escherichia coli); format: in vivo; conditions: mouse, sc, 25 mg/Kg subcutaneously, mice
Protocol: The concentration of the compound in the serum was determined by bioassay using Escherichia coli as assay microorganism.

Pseudomonas aeruginosa = assay: Antibacterial activity against Pseudomonas aeruginosa (from Table 1); format: cell-based; conditions: in words
Streptococcus faecalis = assay: Antibacterial activity against Streptococcus faecalis (statement in words); format: cell-based

Row | Structure (SMILES) | MIC [1] | MIC [2] | MIC [3] | MIC [4] | MIC [5] | MIC (Proteus morganii 1510) | MIC [6] | MIC [7] | MIC [8] | effectiveness against Pseudomonas aeruginosa (Pseudomonas aeruginosa) | other results
1 | CC1OC2C(NC(=O)C(=NOCC(=O)O)c3csc(N)n3)C(=O)N2C(C(=O)[O-])=C1CSc1cc[n+](CC(=O)O)cc1 [Compound 9, (6R,7R)-7-((Z)-2-(2-Aminothiazole-4-yl)-2-carboxymethoxyiminoacetamide)-(2S)-2-methyl-3-(1-carboxymethylpyridinium-4-ylthiomethyl)-1-oxa-1-dethiaceph-3-em-4-carboxylate (Sodium Salt)] | 6.25 µg/mL | 50 µg/mL | 0.1 µg/mL | 0.1 µg/mL | < 0.025 µg/mL | 0.78 µg/mL | 12.5 µg/mL | 3.13 µg/mL | 3.13 µg/mL | effective against Pseudomonas aeruginosa | concentration at 0.5 h ([9]; 1/2 hour): 25000 ng/mL; concentration at 0.25 h ([9]; 1/4 hour): 32000 ng/mL; concentration at 5 min ([9]; 1/12 hour): 36000 ng/mL; concentration at 1 h ([9]; 1 hour): 5100 ng/mL
2 | CC[n+]1ccc(SCC2=C(C(=O)[O-])N3C(=O)C(NC(=O)C(=NOC(C)(C)C(=O)O)c4csc(N)n4)C3OC2C)cc1 [Compound 2, (6R,7R)-7-((Z)-2-(2-Aminothiazole-4-yl)-2-(2-carboxyprop-2-oxyimino)acetamide)-(2S)-2-methyl-3-(1-ethyl-pyridinium-4-ylthiomethyl)-1-oxa-1-dethiaceph-3-em-4-carboxylate (Sodium Salt)] | 0.78 µg/mL | 50 µg/mL | 0.2 µg/mL | 0.2 µg/mL | < 0.025 µg/mL | 0.1 µg/mL | 0.78 µg/mL | 3.13 µg/mL | 3.13 µg/mL | effective against Pseudomonas aeruginosa | 
3 | CON=C(C(=O)NC1C(=O)N2C(C(=O)[O-])=C(CSc3cc[n+](C)cc3)COC12)c1csc(N)n1 [Compound 10, (6R,7R)-7-((Z)-2-(2-Aminothiazole-4-yl)-2-methoxyiminoacetamide)-3-(1-methylpyridinium-4-yl-thiomethyl)-1-oxa-1-dethiaceph-3-em-4-carboxylate] | 0.1 µg/mL (≈ 0.198 µM) | 1.56 µg/mL (≈ 3.09 µM) | < 0.025 µg/mL | 0.025 µg/mL (≈ 0.0495 µM) | < 0.025 µg/mL | 1.56 µg/mL (≈ 3.09 µM) | 1.56 µg/mL (≈ 3.09 µM) | 6.25 µg/mL (≈ 12.4 µM) | 25 µg/mL (≈ 49.5 µM) |  | effectiveness against Streptococcus faecalis (Streptococcus faecalis): effective against Streptococcus faecalis
4 | CC(C)(ON=C(C(=O)NC1C(=O)N2C(C(=O)[O-])=C(CSc3cc[n+](CCF)cc3)COC12)c1csc(N)n1)C(=O)O [Compound 15, (6R,7R)-7-((Z)-2-(2-Aminothiazole-4-yl)-2-2-carboxyprop-2-oxyimino)acetamide)-3-((2-fluoroethyl)pyridinium-4-ylthiomethyl)-1-oxa-1-dethiaceph-3-em-4-carboxylate] | 6.25 µg/mL (≈ 10.3 µM) | 50 µg/mL (≈ 82.2 µM) | 0.1 µg/mL (≈ 0.164 µM) | 0.1 µg/mL (≈ 0.164 µM) | 0.5 µg/mL (≈ 0.822 µM) | 6.25 µg/mL (≈ 10.3 µM) | 50 µg/mL (≈ 82.2 µM) | 3.13 µg/mL (≈ 5.14 µM) | 3.13 µg/mL (≈ 5.14 µM) | effective against Pseudomonas aeruginosa | 
5 | C[C@@H]1O[C@@H]2[C@@H](NC(=O)/C(=N\OCC(=O)[O-])c3csc(N)n3)C(=O)N2C(C(=O)[O-])=C1CSc1cc[n+](C)cc1.[Na+] [Compound 18, (6R,7R)-7-((Z)-2-(2-Aminothiazole-4-yl)-2-carboxymethoxyiminoacetamide)-(2S)-2-methyl-3-(1-methylpyridinium-4-ylthiomethyl)-1-oxa-1-dethiaceph-3-em-4-carboxylate (Sodium Salt)] |  |  |  |  |  |  |  |  |  |  | Minimum Inhibitory Concentration (MIC) [1]: 0.78 µg/mL; Minimum Inhibitory Concentration (MIC) [2]: 25 µg/mL; Minimum Inhibitory Concentration (MIC) [3]: 0.05 µg/mL; Minimum Inhibitory Concentration (MIC) [4]: 0.10 µg/mL; Minimum Inhibitory Concentration (MIC) [5]: < 0.025 µg/mL; Minimum Inhibitory Concentration (MIC) (Proteus morganii 1510): 0.10 µg/mL; Minimum Inhibitory Concentration (MIC) [6]: 1.56 µg/mL; Minimum Inhibitory Concentration (MIC) [7]: 1.56 µg/mL; Minimum Inhibitory Concentration (MIC) [8]: 1.56 µg/mL
6 | CC1OC2C(NC(=O)C(=NOC(C)(C)C(=O)O)c3csc(N)n3)C(=O)N2C(C(=O)[O-])=C1CSc1cc[n+](C(CF)CF)cc1 [Compound 17, (6R,7R)-7-((Z)-2-(2-Aminothiazole-4-yl)-2-(2-carboxyprop-2-oxyimino)acetamide)-(2S)-2-methyl-3-(1-(1,3-difluoroprop-2-yl)-pyridinium-4-ylthiomethyl)-1-oxa-1-dethiaceph-3-em-4-carboxylate (Sodium Salt)] | 0.78 µg/mL | 25 µg/mL | 0.025 µg/mL | 0.05 µg/mL | < 0.025 µg/mL | 0.2 µg/mL | 1.56 µg/mL | 1.56 µg/mL | 1.56 µg/mL |  | 
7 | CC1OC2C(NC(=O)C(=NOCC(=O)O)c3csc(N)n3)C(=O)N2C(C(=O)[O-])=C1CSc1cc[n+](CCF)cc1 [Compound 19, (6R,7R)-7-((Z)-2-(2-Aminothiazole-4-yl)-2-carboxymethoxyiminoacetamide)-(2S)-2-methyl-3-(1-(2-fluoroethyl)pyridinium-4-ylthiomethyl)-1-oxa-1-dethiaceph-3-em-4-carboxylate (Sodium Salt)] | 3.13 µg/mL | > 100 µg/mL | 0.78 µg/mL | 0.39 µg/mL | 0.1 µg/mL | 0.2 µg/mL | 1.56 µg/mL | 3.13 µg/mL | 3.13 µg/mL |  | 

Continued, in another order:

Row | MIC [1] | MIC [2] | MIC [3] | MIC [4] | MIC [5] | MIC (Proteus morganii 1510) | MIC [6] | MIC [7] | MIC [8] | Structure (SMILES) | effectiveness against Pseudomonas aeruginosa (Pseudomonas aeruginosa) | other results
8 | 1.56 µg/mL | 50 µg/mL | 0.05 µg/mL | 0.05 µg/mL | 0.1 µg/mL | 12.5 µg/mL | > 100 µg/mL | > 100 µg/mL | > 100 µg/mL | CCN1CCN(C(=O)NC(C(=O)NC2C(=O)N3C(C(=O)[O-])=C(CSc4cc[n+](CC(=O)O)cc4)COC23)c2csc(N)n2)C(=O)C1=O (racemic) [Compound 21, (6R,7R)-7-(DL-2-(2-Aminothiazole-4-yl)-2-(4-ethyl-2,3-dioxopiperazine-1-ylcarboxamide)acetamide)-3-(1-carboxymethylpyridinium-4-yl-thiomethyl)-1-oxa-1-dethiaceph-3-em-4-carboxylate (Sodium Salt)] |  | 
9 | 1.56 µg/mL | 50 µg/mL | 0.2 µg/mL | 0.39 µg/mL | 0.05 µg/mL | 0.2 µg/mL | 1.56 µg/mL | 3.13 µg/mL | 3.13 µg/mL | CC1OC2C(NC(=O)C(=NOC(C)(C)C(=O)O)c3csc(N)n3)C(=O)N2C(C(=O)[O-])=C1CSc1cc[n+](CC(F)(F)F)cc1 [Compound 4, (6R,7R)-7-((Z)-2-(2-Aminothiazole-4-yl)-2-(2-carboxyprop-2-oxyimino)acetamide)-(2S)-2-methyl-3-(1-(2,2,2-trifluoroethyl)pyridinium-4-ylthionethyl)-1-oxa-1-dethia-3-ceph-4-carboxylate (Sodium Salt)] | effective against Pseudomonas aeruginosa | 
10 | 12.5 µg/mL | 50 µg/mL | 0.39 µg/mL | 0.39 µg/mL | 0.1 µg/mL | 1.56 µg/mL | 3.13 µg/mL | 3.13 µg/mL | 6.25 µg/mL | CC1OC2C(NC(=O)C(=NOC(C)(C)C(=O)O)c3csc(N)n3)C(=O)N2C(C(=O)[O-])=C1CSc1cc[n+](CC(=O)O)cc1 [Compound 5, (6R,7R)-7-((Z)-2-(2-Aminothiazole-4-yl)-2-(2-carboxyprop-2-oxyimino)acetamide)-(2S)-2-methyl-3-(1-carboxymethylpyridinium-4-ylthiomethyl-1-oxa-1-dethiaceph-3-em-4-carboxylate (Sodium Salt)] |  | 
11 | 0.39 µg/mL | > 100 µg/mL | 0.1 µg/mL | 0.2 µg/mL | 0.2 µg/mL | 6.25 µg/mL | 25 µg/mL | 100 µg/mL | 25 µg/mL | CCN1CCN(C(=O)NC(C(=O)NC2C(=O)N3C(C(=O)[O-])=C(CSc4cc[n+](C)cc4)COC23)c2csc(N)n2)C(=O)C1=O (racemic) [Compound 20, (6R,7R)-7-(DL-2-(2-Aminothiazole-4-yl)-2-(4-ethyl-2,3-dioxopiperazine-1-ylcarboxamide)acetamide)-3-(1-methylpyridinium-4-ylthiomethyl)-1-oxa-1-dethiaceph-3-em-4-carboxylate (Sodium Salt)] |  | 
12 | 0.78 µg/mL | 25 µg/mL | 0.2 µg/mL | 0.2 µg/mL | < 0.025 µg/mL | 0.2 µg/mL | 0.78 µg/mL | 1.56 µg/mL | 1.56 µg/mL | CC1OC2C(NC(=O)C(=NOC(C)(C)C(=O)O)c3csc(N)n3)C(=O)N2C(C(=O)[O-])=C1CSc1cc[n+](CCF)cc1 [Compound 3, (6R,7R)-7-((Z)-2-(2-Aminothiazole-4-yl)-2-(2-carboxyprop-2-oxyimino)acetamide)-(2S)-2-methyl-3-(1-(2-fluoroethyl)pyridinium-4-ylthiomethyl)-1-oxa-1-dethiaceph-3-em-4-carboxylate (Sodium Salt)] | effective against Pseudomonas aeruginosa | 
